Laboratory results from US11254663B2 (BRISTOL-MYERS SQUIBB COMPANY, priority 2019, dated 2022).

Molecular target: FXR (Homo sapiens (Human), UniProt Q96RI1)
Assay: FXR EC50 (FXR agonist potency reported with each Example)
Type: cell-based

FXR, sequence (Q96RI1 262-486): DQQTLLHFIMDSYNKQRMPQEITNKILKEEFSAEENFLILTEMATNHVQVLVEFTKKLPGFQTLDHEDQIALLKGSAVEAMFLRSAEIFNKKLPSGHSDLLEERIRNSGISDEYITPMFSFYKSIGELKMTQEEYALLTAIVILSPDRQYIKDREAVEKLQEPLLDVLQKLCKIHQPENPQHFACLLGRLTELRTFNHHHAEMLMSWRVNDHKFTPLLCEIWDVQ

Structure (SMILES)	EC50
O=C(C1CCC(F)(F)C1)N(CC12CCC(c3nc(C4CC4)no3)(CC1)OC2)c1cccc(-c2cc(C3CC3)on2)c1 (stereo not drawn) [Example 202, N-((1-(3-cyclopropyl-1,2,4-oxadiazol-5-yl)-2-oxabicyclo[2.2.2]octan-4-yl)methyl)-N-(3-(5-cyclopropylisoxazol-3-yl)phenyl)-3,3-difluorocyclopentane-1-carboxamide]	299 nM
Cc1cnc(C23CCC(CN(c4cccc(-c5nc(C(F)F)co5)c4)C(=O)[C@H]4C[C@](O)(C(F)(F)F)C4)(CC2)CC3)o1 [Example 46, (cis)-N-(3-(4-(difluoromethyl)oxazol-2-yl)phenyl)-3-hydroxy-N-((4-(5-methyloxazol-2-yl)bicyclo[2.2.2]octan-1-yl)methyl)-3-(trifluoromethyl)cyclobutane-1-carboxamide]	437 nM
O=C(N(CC12CCC(c3nc(C4CC4)no3)(CC1)CC2)c1cccc(-c2noc(C(F)(F)F)n2)c1)C12CC(F)(C1)C2 [Example 108, N-((4-(3-cyclopropyl-1,2,4-oxadiazol-5-yl)bicyclo[2.2.2]octan-1-yl)methyl)-3-fluoro-N-(3-(5-(trifluoromethyl)-1,2,4-oxadiazol-3-yl)phenyl)bicyclo[1.1.1]pentane-1-carboxamide]	144 nM
CC1(c2nc(-c3cccc(N(CC45CCC(c6nc(C7CC7)no6)(CC4)CC5)C(=O)C45CC(F)(C4)C5)c3)no2)CC1 [Example 106, N-((4-(3-cyclopropyl-1,2,4-oxadiazol-5-yl)bicyclo[2.2.2]octan-1-yl)methyl)-3-fluoro-N-(3-(5-(1-methylcyclopropyl)-1,2,4-oxadiazol-3-yl)phenyl)bicyclo[1.1.1]pentane-1-carboxamide]	58 nM
O=C(C1CCC(F)(F)C1)N(CC12CCC(c3nc(C4CC4)no3)(CC1)CC2)c1cccc(-c2cc(C3CC3)on2)c1 (stereo not drawn) [Example 59, N-((4-(3-cyclopropyl-1,2,4-oxadiazol-5-yl)bicyclo[2.2.2]octan-1-yl)methyl)-N-(3-(5-cyclopropylisoxazol-3-yl)phenyl)-3,3-difluorocyclopentane-1-carboxamide]	70 nM
O=C(N(CC12CCC(c3nc(C4CC4)no3)(CC1)CC2)c1cccc(-c2cnc(C3CCOCC3)o2)c1)C12CC(F)(C1)C2 [Example 35, N-((4-(3-cyclopropyl-1,2,4-oxadiazol-5-yl)bicyclo[2.2.2]octan-1-yl)methyl)-3-fluoro-N-(3-(2-(tetrahydro-2H-pyran-4-yl)oxazol-5-yl)phenyl)bicyclo[1.1.1]pentane-1-carboxamide]	251 nM
CC(C)c1noc(C23CCC(CN(C(=O)C45CC(F)(C4)C5)c4cccc(-c5nc(C6CC6)no5)c4)(CC2)CC3)n1 [Example 89, N-(3-(3-cyclopropyl-1,2,4-oxadiazol-5-yl)phenyl)-3-fluoro-N-((4-(3-isopropyl-1,2,4-oxadiazol-5-yl)bicyclo[2.2.2]octan-1-yl)methyl)bicyclo[1.1.1]pentane-1-carboxamide]	47 nM
O=C(N(CC12CCC(c3nc(C4CC4)no3)(CC1)CC2)c1cccc(-c2cnn(C(F)F)c2)c1)C12CC(F)(C1)C2 [Example 160, N-((4-(3-cyclopropyl-1,2,4-oxadiazol-5-yl)bicyclo[2.2.2]octan-1-yl)methyl)-N-(3-(1-(difluoromethyl)-1H-pyrazol-4-yl)phenyl)-3-fluorobicyclo[1.1.1]pentane-1-carboxamide]	43 nM
COc1nccc(C23CCC(CN(C(=O)C45CC(F)(C4)C5)c4cccc(-c5nc(C6CC6)no5)c4)(CC2)CC3)n1 [Example 148, N-(3-(3-cyclopropyl-1,2,4-oxadiazol-5-yl)phenyl)-3-fluoro-N-((4-(2-methoxypyrimidin-4-yl)bicyclo[2.2.2]octan-1-yl)methyl)bicyclo[1.1.1]pentane-1-carboxamide]	687 nM
